# Measurements reported in US9539260B2, “Dihydro-benzo-oxazine and dihydro-pyrido-oxazine derivatives” (Novartis AG, priority 2012, dated 2017).
# pIC50: −log10 of the molar value.
# Columns and labels:
# [1] = target: PI3K alpha (Homo sapiens (Human), UniProt P42336); experiment: Enzymatic PI3K alpha isoform inhibition (lipid kinase activity, Kinase-Glo luminescence); format: biochemical; conditions: Enzymatic assay
# Experimental: (§1) 1.1 Test of Lipid Kinase Activity […]
# (§2) In a more preferred assay, the kinase reaction is performed in a final volume of 10 μl per well of a low volume non-binding CORNING, 384 well black plate (Cat. No. #3676). The final concentrations of ATP and phosphatidyl inositol (PI) in the assay are 1 μM and 10 μg/mL, respectively. The reaction is started by the addition of ATP.
# (§3) The components of the assay are added per well as follows:
# (§4) The Z′ value is a universal measurement of the robustness of an assay. A Z′ between 0.5 and 1.0 is considered an excellent assay.
# (§5) IC50 is determined by a four parameter curve fitting routine that comes along with “excel fit”. A four parameter logistic equation is used to calculate IC50 values (IDBS XLfit) of the percentage inhibition of each compound at 8 concentrations (usually 10, 3.0, 1.0, 0.3, 0.1, 0.030, 0.010 and 0.003 μM). Alternatively, IC50 values are calculated using idbsXLfit model 204, which is a 4 parameter logistic model.
# (§6) Yet alternatively, for an ATP depletion assay, compounds of the formula I to be tested are dissolved in DMSO and directly distributed into a white 384-well plate at 0.5 μl per well. To start the reaction, 10 μl of 10 nM PI3 kinase and 5 μg/mL 1-alpha-phosphatidylinositol (PI) are added into each well followed by 10 μl of 2 μM ATP. The reaction is performed until approx 50% of the ATP is depleted, and then stopped by the addition of 20 μl of Kinase-Glo solution (Promega Corp., Madison, Wis., USA). The stopped reaction is incubated for 5 minutes and the remaining ATP is then detected via luminescence. IC50 values are then determined.
# [2] = target: PI3K delta (Homo sapiens (Human), UniProt O00329); experiment: Enzymatic PI3K delta isoform inhibition (lipid kinase activity, Kinase-Glo luminescence); format: biochemical; conditions: Enzymatic assay
# Chain of PI3K delta (O00329 other isoform, or with tags, fused parts or gaps linker GGGGGG): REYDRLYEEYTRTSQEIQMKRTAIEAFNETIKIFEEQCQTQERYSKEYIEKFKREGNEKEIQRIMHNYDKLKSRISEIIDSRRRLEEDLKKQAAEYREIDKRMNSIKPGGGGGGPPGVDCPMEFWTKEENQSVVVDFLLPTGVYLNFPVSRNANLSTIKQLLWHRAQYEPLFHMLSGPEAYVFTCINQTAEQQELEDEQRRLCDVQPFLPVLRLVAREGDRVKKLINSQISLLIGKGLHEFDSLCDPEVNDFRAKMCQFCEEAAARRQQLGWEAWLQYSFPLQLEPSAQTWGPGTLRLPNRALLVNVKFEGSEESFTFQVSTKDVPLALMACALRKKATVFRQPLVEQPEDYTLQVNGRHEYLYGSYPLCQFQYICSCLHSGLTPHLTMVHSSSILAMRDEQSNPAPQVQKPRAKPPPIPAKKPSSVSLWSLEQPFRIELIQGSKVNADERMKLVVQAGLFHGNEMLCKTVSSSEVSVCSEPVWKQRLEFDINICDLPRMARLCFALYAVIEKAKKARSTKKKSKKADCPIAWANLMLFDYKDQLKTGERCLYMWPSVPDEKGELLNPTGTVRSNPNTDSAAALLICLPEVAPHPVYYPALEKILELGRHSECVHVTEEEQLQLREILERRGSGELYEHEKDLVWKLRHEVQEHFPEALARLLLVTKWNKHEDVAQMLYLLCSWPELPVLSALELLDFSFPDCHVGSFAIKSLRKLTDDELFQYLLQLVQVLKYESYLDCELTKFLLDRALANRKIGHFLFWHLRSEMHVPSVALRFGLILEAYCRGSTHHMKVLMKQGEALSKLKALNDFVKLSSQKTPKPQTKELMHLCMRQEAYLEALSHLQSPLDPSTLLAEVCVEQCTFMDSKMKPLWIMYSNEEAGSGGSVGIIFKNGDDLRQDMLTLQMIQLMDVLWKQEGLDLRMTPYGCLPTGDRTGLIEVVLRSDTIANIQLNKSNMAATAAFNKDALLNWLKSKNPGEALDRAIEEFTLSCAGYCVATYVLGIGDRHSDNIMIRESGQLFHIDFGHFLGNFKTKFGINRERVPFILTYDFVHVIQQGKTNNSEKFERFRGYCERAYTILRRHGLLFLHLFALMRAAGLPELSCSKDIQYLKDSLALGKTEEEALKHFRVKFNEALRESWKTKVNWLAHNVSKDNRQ
# Experimental: as §1, §2, §3, §4, §5, §6
# Chain of PI3K alpha (P42336 other isoform, or with tags, fused parts or gaps): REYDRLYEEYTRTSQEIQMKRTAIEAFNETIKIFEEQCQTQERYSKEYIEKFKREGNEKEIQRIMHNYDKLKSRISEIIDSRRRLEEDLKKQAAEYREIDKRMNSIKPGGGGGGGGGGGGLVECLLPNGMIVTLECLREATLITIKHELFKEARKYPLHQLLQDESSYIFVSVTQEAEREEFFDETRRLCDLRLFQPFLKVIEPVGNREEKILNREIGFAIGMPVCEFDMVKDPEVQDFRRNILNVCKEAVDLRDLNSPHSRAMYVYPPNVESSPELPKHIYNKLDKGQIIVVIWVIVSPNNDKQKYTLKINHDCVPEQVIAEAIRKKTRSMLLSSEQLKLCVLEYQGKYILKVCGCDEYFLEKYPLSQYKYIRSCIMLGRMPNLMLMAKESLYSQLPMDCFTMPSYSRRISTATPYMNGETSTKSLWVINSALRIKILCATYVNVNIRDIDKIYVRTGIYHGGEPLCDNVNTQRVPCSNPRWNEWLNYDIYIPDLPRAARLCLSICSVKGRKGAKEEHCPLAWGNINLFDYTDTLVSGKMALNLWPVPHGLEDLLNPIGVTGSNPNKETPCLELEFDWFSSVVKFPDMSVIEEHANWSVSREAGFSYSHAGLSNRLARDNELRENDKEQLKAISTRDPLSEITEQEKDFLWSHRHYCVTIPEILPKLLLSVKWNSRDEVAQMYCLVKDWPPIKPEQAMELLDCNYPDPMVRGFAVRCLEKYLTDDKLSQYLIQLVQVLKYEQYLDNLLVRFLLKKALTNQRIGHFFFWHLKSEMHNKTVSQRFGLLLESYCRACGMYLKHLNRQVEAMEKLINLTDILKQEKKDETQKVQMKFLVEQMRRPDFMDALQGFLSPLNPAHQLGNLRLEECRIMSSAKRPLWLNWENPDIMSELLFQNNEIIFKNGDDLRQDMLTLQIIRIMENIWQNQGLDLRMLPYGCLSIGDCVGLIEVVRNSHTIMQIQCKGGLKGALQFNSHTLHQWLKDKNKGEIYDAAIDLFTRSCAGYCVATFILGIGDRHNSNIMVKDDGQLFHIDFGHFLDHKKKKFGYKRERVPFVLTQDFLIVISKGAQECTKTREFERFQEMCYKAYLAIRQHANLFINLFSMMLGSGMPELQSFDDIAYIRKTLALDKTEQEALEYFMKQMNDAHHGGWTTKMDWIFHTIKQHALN
SMILES,pIC50 [1],pIC50 [2]
"CCC(=O)N1CC[C@H](Oc2ccc3c(c2)N(c2ccc(S(=O)(=O)CC)nc2)CCO3)C1 [Example B96, 1-{(S)-3-[4-(6-Ethanesulfonyl-pyridin-3-yl)-3,4-dihydro-2H-benzo[1,4]oxazin-6-yloxy]-pyrrolidin-1-yl}-propan-1-one]",< 5.04,6.93
"CCC(=O)N1CC[C@H](Oc2ccc3c(c2)N(c2cnc(OC)c(Cl)c2)CCO3)C1 [Example A12, 1-{(S)-3-[4-(5-Chloro-6-methoxy-pyridin-3-yl)-3,4-dihydro-2H-benzo[1,4]oxazin-6-yloxy]-pyrrolidin-1-yl}-propan-1-one]",6.74,8.52
"COc1ncc(N2CCOc3ccc(O[C@H]4CCN(C(=O)CCS(C)(=O)=O)C4)cc32)cc1Cl [Example B106, 1-{(S)-3-[4-(5-Chloro-6-methoxy-pyridin-3-yl)-3,4-dihydro-2H-benzo[1,4]oxazin-6-yloxy]-pyrrolidin-1-yl}-3-methanesulfonyl-propan-1-one]",6.61,7.77
"CCC(=O)N1CC[C@H](Oc2ccc3c(c2)N(c2cncc(S(C)(=O)=O)c2)CCO3)C1 [Example A37, 1-{(S)-3-[4-(5-Methanesulfonyl-pyridin-3-yl)-3,4-dihydro-2H-benzo[1,4]oxazin-6-yloxy]-pyrrolidin-1-yl}-propan-1-one]",6.43,7.11
"COc1ncc(N2CCOc3ccc(O[C@H]4CCN(C(=O)C5CCS(=O)(=O)CC5)C4)cc32)cc1Cl [Example B12, {(S)-3-[4-(5-Chloro-6-methoxy-pyridin-3-yl)-3,4-dihydro-2H-benzo[1,4]oxazin-6-yloxy]-pyrrolidin-1-yl}-(1,1-dioxo-hexahydro-1lambda*6*-thiopyran-4-yl)-methanone]",6.44,7.96
"COc1cc(N2CCOc3ccc(O[C@H]4CCN(C(=O)[C@H]5CC[C@H](O)CC5)C4)cc32)cnc1OC [Example B66, {(S)-3-[4-(5,6-Dimethoxy-pyridin-3-yl)-3,4-dihydro-2H-benzo[1,4]oxazin-6-yloxy]-pyrrolidin-1-yl}-(4-hydroxy-cyclohexyl)-methanone]",6.35,7.96
"CS(=O)(=O)c1ncc(N2CCOc3ccc(O[C@H]4CCN(C(=O)[C@@H]5CCOC5)C4)cc32)cc1C(F)F [Example B75, {(S)-3-[4-(5-Difluoromethyl-6-methanesulfonyl-pyridin-3-yl)-3,4-dihydro-2H-benzo[1,4]oxazin-6-yloxy]-pyrrolidin-1-yl}-(R)-tetrahydro-furan-3-yl-methanone]",6.68,7.96
"CCC(=O)N1CC[C@H](Oc2ccc3c(c2)N(c2cnc4ccccc4c2)CCO3)C1 [Example A36, 1-[(S)-3-(4-Quinolin-3-yl-3,4-dihydro-2H-benzo[1,4]oxazin-6-yloxy)-pyrrolidin-1-yl]-propan-1-one]",5.90,7.11
"CS(=O)(=O)c1ncc(N2CCOc3ccc(O[C@H]4CCN(C(=O)C5CCOCC5)C4)cc32)cc1C(F)F [Example B70, {(S)-3-[4-(5-Difluoromethyl-6-methanesulfonyl-pyridin-3-yl)-3,4-dihydro-2H-benzo[1,4]oxazin-6-yloxy]-pyrrolidin-1-yl}-(tetrahydro-pyran-4-yl)-methanone]",6.87,8.52
"CCC(=O)N1CC[C@H](Oc2ccc3c(c2)N(c2cncc(S(=O)(=O)N(C)C)c2)CCO3)C1 [Example A39, 5-[6-((S)-1-Propionyl-pyrrolidin-3-yloxy)-2,3-dihydro-benzo[1,4]oxazin-4-yl]-pyridine-3-sulfonic acid dimethylamide]",7.15,8.05
"CCOc1ncc(N2CCOc3ccc(O[C@H]4CCN(C(=O)C5CCS(=O)(=O)CC5)C4)cc32)cc1C [Example B17, (1,1-Dioxo-hexahydro-1lambda*6*-thiopyran-4-yl)-{(S)-3-[4-(6-ethoxy-5-methyl-pyridin-3-yl)-3,4-dihydro-2H-benzo[1,4]oxazin-6-yloxy]-pyrrolidin-1-yl}-methanone]",5.68,7.64
"COc1ncc(N2CCOc3ccc(O[C@H]4CCN(C(=O)C5CCOC5)C4)cc32)cc1C (stereo partly drawn) [Example B16, {(S)-3-[4-(6-Methoxy-5-methyl-pyridin-3-yl)-3,4-dihydro-2H-benzo[1,4]oxazin-6-yloxy]-pyrrolidin-1-yl}-(tetrahydro-furan-3-yl)-methanone]",5.39,7.43
"COc1ncc(N2CCOc3ccc(O[C@H]4CCN(C(=O)C5CCS(=O)(=O)C5)C4)cc32)cc1F (stereo partly drawn) [Example B101, (1,1-Dioxo-tetrahydro-1lambda*6*-thiophen-3-yl)-{(S)-3-[4-(5-fluoro-6-methoxy-pyridin-3-yl)-3,4-dihydro-2H-benzo[1,4]oxazin-6-yloxy]-pyrrolidin-1-yl}-methanone]",6.33,7.82

# Other lines, results leading:
pIC50 [1],pIC50 [2],SMILES
5.16,5.49,"COc1ncc(N2CCOc3ccc(O[C@H]4CCN(C(=O)C5CCCOC5)C4)cc32)cc1C#N (stereo partly drawn) [Example C26, 2-Methoxy-5-{6-[(S)-1-(tetrahydro-pyran-3-carbonyl)-pyrrolidin-3-yloxy]-2,3-dihydro-benzo[1,4]oxazin-4-yl}-nicotinonitrile]"
6.18,7.11,"COc1ncc(N2CCOc3ccc(O[C@H]4CCN(C(=O)c5cncnc5)C4)cc32)cc1C#N [Example C13, 2-Methoxy-5-{6-[(S)-1-(pyrimidine-5-carbonyl)-pyrrolidin-3-yloxy]-2,3-dihydro-benzo[1,4]oxazin-4-yl}-nicotinonitrile]"
6.52,8.22,"Cc1cc(N2CCOc3ccc(O[C@H]4CCN(c5ccccn5)C4)cc32)cnc1S(C)(=O)=O [M, 4-(6-Methanesulfonyl-5-methyl-pyridin-3-yl)-6-((S)-1-pyridin-2-yl-pyrrolidin-3-yloxy)-3,4-dihydro-2H-benzo[1,4]oxazine]"
6.06,7.80,"COc1ncc(N2CCOc3ccc(O[C@H]4CCN(C(=O)C5COCCO5)C4)cc32)cc1F (single isomer, unassigned) [Example H16]"
6.28,7.39,"COc1ncc(N2CCOc3ccc(O[C@H]4CCN(C(=O)c5cc[nH]c(=O)c5)C4)cc32)cc1C#N [Example D21, 2-Methoxy-5-{6-[(S)-1-(2-oxo-1,2-dihydro-pyridine-4-carbonyl)-pyrrolidin-3-yloxy]-2,3-dihydro-benzo[1,4]oxazin-4-yl}-nicotinonitrile]"
6.87,8.05,"COc1ncc(N2CCOc3ccc(O[C@H]4CCN(C(=O)c5cncn5C)C4)cc32)cc1C#N [Example D31, 2-Methoxy-5-{6-[(S)-1-(3-methyl-3H-imidazole-4-carbonyl)-pyrrolidin-3-yloxy]-2,3-dihydro-benzo[1,4]oxazin-4-yl}-nicotinonitrile]"
6.29,7.74,"COc1ncc(N2CCOc3ccc(O[C@H]4CCN(C(=O)C5CCNCC5)C4)cc32)cc1C#N [Example D38, 2-Methoxy-5-{6-[(S)-1-(piperidine-4-carbonyl)-pyrrolidin-3-yloxy]-2,3-dihydro-benzo[1,4]oxazin-4-yl}-nicotinonitrile]"
6.99,8.30,"COc1ncc(N2CCOc3ccc(O[C@H]4CCN(C(=O)C5CCS(=O)(=O)C5)C4)cc32)cc1Cl (single isomer, unassigned) [Example H14]"
